ChEMBL document CHEMBL1201862, “PubChem BioAssay data set” (2004)
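96-well plates; 48 h exposure; 5 concentrations. Endpoints by linear interpolation between flanking doses. Not reached: highest tested concentration assigned. GI50: concentration for 50% inhibition of growth.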 Activity calls are given as the source filed them. Rule as the data show it: active = GI50 up to about 1.1 µM and inactive = higher.

Legend:
Test in all cases: growth of human tumour cells (NCI), 48 h
786-0 = tested on: 786-0
KM12 = tested on: KM12
ACHN = tested on: ACHN
DLD-1 = tested on: DLD-1
NCI-H23 = tested on: NCI-H23
SNB-19 = tested on: SNB-19
CCRF-CEM = tested on: CCRF-CEM
KM-20L2 = tested on: KM-20L2
XF498 = tested on: XF498
MOLT-4 = tested on: MOLT-4
DMS-273 = tested on: DMS-273
HOP-18 = tested on: HOP-18
SK-MEL-28 = tested on: SK-MEL-28
SNB-75 = tested on: SNB-75
SF-539 = tested on: SF-539
OVCAR-3 = tested on: OVCAR-3
TK-10 = tested on: TK-10
SF-295 = tested on: SF-295
IGROV-1 = tested on: IGROV-1
COLO 205 = tested on: COLO 205
SK-OV-3 = tested on: SK-OV-3
RXF 631 = tested on: RXF 631
SW-620 = tested on: SW-620
SF-268 = tested on: SF-268
A549 = tested on: A549
HOP-62 = tested on: HOP-62
UO-31 = tested on: UO-31
OVCAR-8 = tested on: OVCAR-8
UACC-257 = tested on: UACC-257
SN12C = tested on: SN12C
UACC-62 = tested on: UACC-62
M19-MEL = tested on: M19-MEL
M14 = tested on: M14
Malme-3M = tested on: Malme-3M
U-251 = tested on: U-251
HL-60 = tested on: HL-60
NCI-H460 = tested on: NCI-H460
HT-29 = tested on: HT-29
SR = tested on: SR
RPMI-8226 = tested on: RPMI-8226
CAKI-1 = tested on: CAKI-1
K562 = tested on: K562
LXFL 529 = tested on: LXFL 529
NCI-H226 = tested on: NCI-H226
A498 = tested on: A498
SK-MEL-5 = tested on: SK-MEL-5
HOP-92 = tested on: HOP-92
LOX IMVI = tested on: LOX IMVI
HCT-116 = tested on: HCT-116
NCI-H522 = tested on: NCI-H522
SNB-78 = tested on: SNB-78
EKVX = tested on: EKVX
OVCAR-5 = tested on: OVCAR-5
RXF 393 = tested on: RXF 393
HCC 2998 = tested on: HCC 2998
DMS-114 = tested on: DMS-114
OVCAR-4 = tested on: OVCAR-4
SK-MEL-2 = tested on: SK-MEL-2

Measured: GI50

Cc1cn(C2C=CC(=O)C(C)O2)c(=O)[nH]c1=O (configuration not stated)
inactive: 786-0 18 µM | KM12 16.1 µM | ACHN 17.5 µM | DLD-1 14.1 µM | NCI-H23 18.1 µM | SNB-19 21 µM | CCRF-CEM 6.07 µM | KM-20L2 16.3 µM | XF498 13.5 µM | MOLT-4 18 µM | DMS-273 18.1 µM | HOP-18 15 µM | SK-MEL-28 14.9 µM | SNB-75 15.5 µM | SF-539 18.7 µM | OVCAR-3 17.4 µM | TK-10 15.1 µM | SF-295 17.5 µM | IGROV-1 18 µM | COLO 205 17.5 µM | SK-OV-3 33.8 µM | RXF 631 15.2 µM | SW-620 15.1 µM | SF-268 18.2 µM | A549 39 µM | HOP-62 20.6 µM | UO-31 14.5 µM | OVCAR-8 18.6 µM | UACC-257 14 µM | SN12C 15.9 µM | UACC-62 15.7 µM | M19-MEL 15.8 µM | M14 15.3 µM | Malme-3M 13.2 µM | U-251 15.3 µM | HL-60 14.7 µM | NCI-H460 17.9 µM | HT-29 17.1 µM | SR 18.3 µM | RPMI-8226 20.5 µM | CAKI-1 16.7 µM | K562 10.6 µM | LXFL 529 14.8 µM | NCI-H226 19.5 µM | A498 38.1 µM | SK-MEL-5 14.7 µM | HOP-92 15.9 µM | LOX IMVI 13.2 µM | HCT-116 12.2 µM | NCI-H522 16.6 µM | SNB-78 16.7 µM

O=C(O)C[C@H]1CCCCC12CCOC2=O (some centres not stated)
inactive: 786-0 > 100 µM | EKVX > 100 µM | KM12 > 100 µM | ACHN > 100 µM | DLD-1 > 100 µM | NCI-H23 > 100 µM | SNB-19 > 100 µM | CCRF-CEM > 100 µM | KM-20L2 > 100 µM | XF498 > 100 µM | OVCAR-5 > 100 µM | MOLT-4 > 100 µM | DMS-273 > 100 µM | HOP-18 > 100 µM | SK-MEL-28 > 100 µM | RXF 393 > 100 µM | SNB-75 > 100 µM | SF-539 > 100 µM | OVCAR-3 > 100 µM | TK-10 > 100 µM | SF-295 > 100 µM | IGROV-1 > 100 µM | COLO 205 > 100 µM | HCC 2998 > 100 µM | SK-OV-3 > 100 µM | RXF 631 > 100 µM | DMS-114 > 100 µM | SW-620 > 100 µM | SF-268 > 100 µM | A549 > 100 µM | OVCAR-4 > 100 µM | HOP-62 > 100 µM | UO-31 > 100 µM | OVCAR-8 > 100 µM | UACC-257 > 100 µM | SN12C > 100 µM | UACC-62 > 100 µM | M19-MEL > 100 µM | M14 > 100 µM | U-251 > 100 µM | HL-60 > 100 µM | NCI-H460 > 100 µM | HT-29 > 100 µM | SR > 100 µM | RPMI-8226 > 100 µM | CAKI-1 > 100 µM | K562 > 100 µM | LXFL 529 > 100 µM | SK-MEL-2 87.5 µM | NCI-H226 > 100 µM | SK-MEL-5 > 100 µM | HOP-92 > 100 µM | LOX IMVI > 100 µM | HCT-116 > 100 µM | NCI-H522 > 100 µM | SNB-78 > 100 µM
